Patent US7572815B2, “Amide derivative” (Ajinomoto Co., Inc., priority 2003, dated 2009)

Test system: male ICR mouse
Experiment: Acetic acid-induced writhing method
Assay type: in vivo
Details: intraperitoneal, 30 minutes before 0.8% acetic acid
Procedure: The effect of the test compound was considered using male ICR mouse (4-week-old) according to a writhing test method induced by acetic acid. For intraperitoneal administration of a test compound and a standard product, the test compound was dissolved in a saline containing 5% DMSO and 5% Tween 80 to a suitable concentration. The test compound was administered 30 minutes before intraperitoneal administration of 0.8% acetic acid solution (diluted with saline), and the number of writhing was measured for 15 minutes from 5 minutes after acetic acid administration. A saline containing 5% DMSO and 5% Tween 80 was intraperitoneally administered to all control groups (vehicle administration group). Using indomethacin as a standard product, the same test was performed.
The number of writhing by each test compound is shown in FIG. 1, and the number of writhings by indomethacin is shown in FIG. 2.

| Compound | Inhibition ratio (%) of number of writhing (dose 10 mg/kg) [%] | Inhibition ratio (%) of number of writhing (dose 20 mg/kg) [%] |
| --- | --- | --- |
| CCN(CCCC(=O)Nc1ccccc1Br)c1cccc(C)c1 [Example 52, N-(2-bromophenyl)-4-(ethyl-3-methylanilino)butanamide] | 19 | 67 |
| COc1ccc2c(c1)c(CC(=O)O)c(C)n2C(=O)c1ccc(Cl)cc1 [indomethacin, reference compound] | 31 | – |
